# “And” between values parts separate entries of the source, which are not always exact repeats. Identical values can stand only once. Inconclusive results and toxic doses are left out.
# Tested on: CD2F1 mice, L1210 leukemia sc, survival T/C
# Experiment: NCI In Vivo Anticancer Drug Screen. Data for tumor model L1210 Leukemia (subcutaneous) in CD2F1 (CDF1) mice
# Conditions: endpoint: median survival time, higher = longer survival
# In short: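 Compound given to mice bearing transplantable tumor. Survival or tumor size then recorded. Result expressed relative to vehicle-dosed control group as T/C.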
# [1] = dose: 3.0 mg/kg/injection, schedule: Q01DX Z (sc), vehicle: methylcellulose (MC)
# [2] = dose: 5.0 mg/kg/injection, schedule: Q01DX Z (sc), vehicle: methylcellulose (MC)
# [3] = dose: 5.0 mg/kg/injection, schedule: Q01DX Z (sc), vehicle: water
# [4] = dose: 8.4 mg/kg/injection, schedule: Q01DX Z (sc), vehicle: methylcellulose (MC)
# [5] = dose: 8.4 mg/kg/injection, schedule: Q01DX Z (sc), vehicle: water
# [6] = dose: 14.0 mg/kg/injection, schedule: Q01DX Z (sc), vehicle: water
# [7] = dose: 23.0 mg/kg/injection, schedule: Q01DX Z (sc), vehicle: methylcellulose (MC)
# [8] = dose: 23.0 mg/kg/injection, schedule: Q01DX Z (sc), vehicle: water
# [9] = dose: 39.0 mg/kg/injection, schedule: Q01DX Z (sc), vehicle: methylcellulose (MC)
# [10] = dose: 39.0 mg/kg/injection, schedule: Q01DX Z (sc), vehicle: water
# [11] = dose: 65.0 mg/kg/injection, schedule: Q01DX Z (sc), vehicle: methylcellulose (MC)
# [12] = dose: 65.0 mg/kg/injection, schedule: Q01DX Z (sc), vehicle: water
smiles,measurement,setting,value
O=NN(CCCl)C(=O)NCCCl,T/C,"dose: 0.25 mg/kg/injection, schedule: Q01DX009 (ip), vehicle: saline + alcohol",108 % of control
same,T/C,"dose: 0.25 mg/kg/injection, schedule: Q01DX009 (sc), vehicle: saline + alcohol",100 % of control and 107 % of control
same,T/C,"dose: 0.5 mg/kg/injection, schedule: Q01DX009 (ip), vehicle: saline + alcohol",121 % of control
same,T/C,"dose: 0.5 mg/kg/injection, schedule: Q01DX009 (sc), vehicle: saline + alcohol",112 % of control and 98 % of control
same,T/C,"dose: 0.88 mg/kg/injection, schedule: Q01DX009 (ip), vehicle: saline + alcohol",121 % of control
same,T/C,"dose: 0.9 mg/kg/injection, schedule: Q01DX009 (ip), vehicle: saline + alcohol",112 % of control
same,T/C,"dose: 1.0 mg/kg/injection, schedule: Q01DX009 (sc), vehicle: saline + alcohol",108 % of control and 124 % of control
same,T/C,"dose: 1.8 mg/kg/injection, schedule: Q01DX009 (ip), vehicle: saline + alcohol",120 % of control
same,T/C,"dose: 1.8 mg/kg/injection, schedule: Q01DX Z (sc), vehicle: saline",243 % of control
same,T/C,"dose: 2.0 mg/kg/injection, schedule: Q01DX009 (ip), vehicle: saline + alcohol",159 % of control and 192 % of control
same,T/C,"dose: 3.0 mg/kg/injection, schedule: Q01DX Z (sc), vehicle: saline",512 % of control
same,T/C,"dose: 4.0 mg/kg/injection, schedule: Q01DX009 (ip), vehicle: saline + alcohol",187 % of control and 219 % of control
same,T/C,"dose: 5.0 mg/kg/injection, schedule: Q01DX Z (sc), vehicle: saline",300 % of control
same,T/C,"dose: 5.0 mg/kg/injection, schedule: Q07DX Z (sc), vehicle: saline",150 % of control
same,T/C,"dose: 5.3 mg/kg/injection, schedule: Q01DX009 (sc), vehicle: saline + alcohol",314 % of control
same,T/C,"dose: 5.33 mg/kg/injection, schedule: Q01DX009 (ip), vehicle: saline + alcohol",222 % of control
same,T/C,"dose: 5.33 mg/kg/injection, schedule: Q01DX009 (sc), vehicle: saline + alcohol",203 % of control
same,T/C,"dose: 7.0 mg/kg/injection, schedule: Q01DX009 (ip), vehicle: saline + alcohol",167 % of control and 184 % of control
same,T/C,"dose: 8.0 mg/kg/injection, schedule: Q01DX009 (ip), vehicle: saline + alcohol",179 % of control and 243 % of control
same,T/C,"dose: 8.4 mg/kg/injection, schedule: Q01DX001 (sc), vehicle: saline",212 % of control
same,T/C,"dose: 8.4 mg/kg/injection, schedule: Q01DX017 (ip), vehicle: none",333 % of control
same,T/C,"dose: 8.4 mg/kg/injection, schedule: Q01DX017 (sc), vehicle: saline",316 % of control
same,T/C,"dose: 8.4 mg/kg/injection, schedule: Q01DX Z (sc), vehicle: saline",256 % of control
same,T/C,"dose: 8.4 mg/kg/injection, schedule: Q07DX Z (sc), vehicle: saline",293 % of control
same,T/C,"dose: 12.0 mg/kg/injection, schedule: Q01DX009 (sc), vehicle: saline + alcohol",151 % of control and 205 % of control
same,T/C,"dose: 14.0 mg/kg/injection, schedule: Q01DX001 (sc), vehicle: saline",300 % of control
same,T/C,"dose: 14.0 mg/kg/injection, schedule: Q01DX009 (ip), vehicle: saline + alcohol",116 % of control
same,T/C,"dose: 14.0 mg/kg/injection, schedule: Q01DX017 (ip), vehicle: none",588 % of control
same,T/C,"dose: 14.0 mg/kg/injection, schedule: Q01DX017 (sc), vehicle: saline",388 % of control
same,T/C,"dose: 14.0 mg/kg/injection, schedule: Q01DX Z (sc), vehicle: saline",212 % of control
same,T/C,"dose: 14.0 mg/kg/injection, schedule: Q07DX Z (sc), vehicle: saline",600 % of control
same,T/C,"dose: 16.0 mg/kg/injection, schedule: Q01DX009 (sc), vehicle: saline + alcohol",160 % of control
same,T/C,"dose: 23.0 mg/kg/injection, schedule: Q01DX001 (sc), vehicle: saline",343 % of control
same,T/C,"dose: 23.0 mg/kg/injection, schedule: Q01DX017 (ip), vehicle: none",731 % of control
same,T/C,"dose: 23.0 mg/kg/injection, schedule: Q01DX017 (sc), vehicle: saline",733 % of control
same,T/C,"dose: 23.0 mg/kg/injection, schedule: Q07DX Z (sc), vehicle: saline",331 % of control
same,T/C,"dose: 32.0 mg/kg/injection, schedule: Q01DX009 (ip), vehicle: saline + alcohol",98 % of control
same,T/C,"dose: 32.0 mg/kg/injection, schedule: Q01DX009 (sc), vehicle: saline + alcohol",102 % of control and 124 % of control
same,T/C,"dose: 39.0 mg/kg/injection, schedule: Q01DX001 (sc), vehicle: saline",243 % of control
same,T/C,"dose: 39.0 mg/kg/injection, schedule: Q01DX017 (ip), vehicle: none",511 % of control
same,T/C,"dose: 39.0 mg/kg/injection, schedule: Q01DX017 (sc), vehicle: saline",500 % of control
same,T/C,"dose: 39.0 mg/kg/injection, schedule: Q07DX Z (sc), vehicle: saline",200 % of control
same,T/C,"dose: 65.0 mg/kg/injection, schedule: Q01DX001 (sc), vehicle: saline",162 % of control
Nc1cc(C(=O)Nc2ccc(C3=NCCN3)cc2)ccc1C(=O)Nc1ccc(C2=NCCN2)cc1,T/C,[1],111 % of control
same,T/C,"dose: 3.0 mg/kg/injection, schedule: Q01DX Z (sc), vehicle: water",116 % of control
same,T/C,[2],200 % of control
same,T/C,[3],266 % of control
same,T/C,[4],255 % of control
same,T/C,[5],294 % of control
same,T/C,"dose: 14.0 mg/kg/injection, schedule: Q01DX Z (sc), vehicle: methylcellulose (MC)",200 % of control
same,T/C,[6],266 % of control
same,T/C,[7],161 % of control
same,T/C,[8],288 % of control
same,T/C,[9],155 % of control
same,T/C,[10],211 % of control
same,T/C,[11],155 % of control
same,T/C,[12],200 % of control
O=C(Nc1ccc(C2=NCCN2)cc1)c1cccc(C(=O)Nc2ccc(C3=NCCN3)cc2)c1,T/C,"dose: 2.0 mg/kg/injection, schedule: Q01DX Z (iv), vehicle: water",100 % of control
same,T/C,[1],100 % of control
same,T/C,"dose: 4.0 mg/kg/injection, schedule: Q01DX Z (iv), vehicle: water",111 % of control
same,T/C,[2],100 % of control
same,T/C,[3],111 % of control
same,T/C,"dose: 8.0 mg/kg/injection, schedule: Q01DX Z (iv), vehicle: water",161 % of control
same,T/C,"dose: 8.0 mg/kg/injection, schedule: Q01DX Z (sc), vehicle: water",183 % of control
same,T/C,[4],111 % of control
same,T/C,[5],200 % of control
same,T/C,[6],250 % of control
same,T/C,"dose: 16.0 mg/kg/injection, schedule: Q01DX Z (sc), vehicle: water",277 % of control
same,T/C,[7],222 % of control
same,T/C,[8],283 % of control
same,T/C,"dose: 32.0 mg/kg/injection, schedule: Q01DX Z (sc), vehicle: water",305 % of control
same,T/C,[9],161 % of control
same,T/C,[10],266 % of control
same,T/C,"dose: 64.0 mg/kg/injection, schedule: Q01DX Z (sc), vehicle: water",283 % of control
same,T/C,[11],177 % of control
same,T/C,[12],266 % of control
same,T/C,"dose: 128.0 mg/kg/injection, schedule: Q01DX Z (sc), vehicle: water",283 % of control

# — PubChem BioAssay AID258 (DTP/NCI, 2004)
